The record followed here is patent publication US20070179143A1 (priority 2003, published 2007).

One series concerns A549. The series is described as follows: Cytotoxicity test to cancer cell lines (SRB method), A549. Particulars: Homo sapiens, A549, 48 h, read-out: Cytotoxicity ED50 A549. (Sulforhodamine B stains cellular protein and so reports cell mass.)
In another series the test system is SK-OV-3. The series is described as follows: Cytotoxicity test to cancer cell lines (SRB method), SK-OV-3. The following applies: Homo sapiens, SK-OV-3, 48 h, read-out: Cytotoxicity ED50 SK-OV-3. In kind it is cell-based.
Another series deals with HCT-15. The series is described as follows: Cytotoxicity test to cancer cell lines (SRB method), HCT-15. Particulars: Homo sapiens, HCT-15, 48 h, read-out: Cytotoxicity ED50 HCT15.
For another series, the system named is SK-MEL-2. The series is described as follows: Cytotoxicity test to cancer cell lines (SRB method), SK-MEL-2. Format: cell-based. The following applies: Homo sapiens, SK-MEL-2, 48 h, read-out: Cytotoxicity ED50 SK-MEL-2.
The test system of another series is MCF7. The series is described as follows: Cytotoxicity test to cancer cell lines (SRB method), MCF7. Particulars: read-out: Cytotoxicity ED50 MCF-7, MCF-7, 48 hours.

Method for A549: (§1) Cytotoxicity to A549 (Korea Research Institute of Chemical Technology), SK-OV-3 (Korea Research Institute of Chemical Technology), SK-MEL-2 (Korea Research Institute of Chemical Technology), HCT-15 (Korea Research Institute of Chemical Technology) and MCF7 (Korean Cell Line Bank, Seoul National University School of medicine) cells was measured by Sulforhodamin-B (SRB) method (1989, National Cancer Institute (NCI)) which was developed for the measurement of in vitro anticancer activity of a drug. Cells were separated using 0.25% trypsin-EDTA solution, leading to the preparation of a cell suspension by 5×10^318 2×10^4 cells/well. Then, the suspension was distributed into a 96 well plate by 100 μl/well, which was cultured in a 37° C., 5% CO2 incubator for 24 hours. Compounds prepared in examples of the present invention were used as a sample. Precisely, the compound was dissolved in dimethylsulfoxide and diluted with RPMI 1640 medium before being used as a sample. The final concentration of the sample used varied ranging 1 μM˜0.00001 μM. The medium was removed from the 96 well plate and then diluted sample solution was added by 100 μl/well, followed by further culture in a 37° C., 5% CO2 incubator for 48 hours. Tz (time zero) plate was collected from the point of adding the sample. Upon completing the culture, the medium was removed from each well along with Tz plate, then 10% trichloroacetic acid (TCA) was added by 100 μl/well. The plate was left at 4° C. for 1 hour to let cells be fixed on the floor of the plate. After cells were fixed completely, the plate was washed with water 5-6 times to remove the remaining trichloroacetic acid solution completely and moisture was completely dried at room temperature. 0.4% Sulforhodamine-B was dissolved in 1% acetic acid solution to prepare a staining solution. Cells were stained for 30 minutes with a dye added by 100 μl to each well of the completely dried plate. Then, the plate was washed with 1% acetic acid solution 5-6 times to remove sulforhodamine-B remained uncombined with cells. Then, the plate was dried at room temperature. 10 mM Tris solution was added by 100 μ/well thereto to dissolve the dye, and optical density (OD) was measured at 520 nm with a micro plate reader.
(§2) ED50 (concentration that inhibits cancer cell growth 50%, 5.0% effective dose, nM/ml) of the sample to cancer cell was calculated as follows. OD value at the point of beginning the culture with the sample was determined as Tz (time zero) value. OD value of a well to be cultured without the sample was determined as a control value (C). OD value of a well pretreated with the sample was determined as experimental value (T). After calculating Tz, C and T, cytotoxicity of the sample was measured by the below <Mathematical Formula 1>. T≦Tz, (T−Tz)/(C−Tz)×100 T>Tz, (T−Tz)/Tz×10,0 <Mathematical Formula 1>
(§3) ED50, the concentration that can inhibit cancer cell growth by 50%, was calculated by using a regression analysis of lotus program based on the degree of cytotoxicity obtained by the <Mathematical Formula 1>.
Method for HCT-15: as §1, §2, §3
Method for MCF7: as §1, §2, §3

In the case of `COc1cc2c(c(OC)c1OC)-c1ccc(SC)c(=O)cc1[C@@H](NC(=O)c1ccc(CO[N+](=O)[O-])nc1)CC2` [Example 1, 6-nitrooxymethyl-N-[(7S)-1,2,3-trimethoxy-10-methylsulfanyl-9-oxo-5,6,7,9-tetrahydro-benzo[a]heptalen-7-yl]-nicotineamide], the EC50 in the series on A549 came out at 1.8 nM; in the series on SK-OV-3 it was 1 nM; in the series with HCT-15, 0.6 nM; in the series with SK-MEL-2, 0.4 nM.
Regarding `COc1cc2c(c(OC)c1OC)-c1ccc(SC)c(=O)cc1[C@@H](NC(=O)c1ccc(CO[N+](=O)[O-])o1)CC2` [Example 2, 5-nitrooxymethyl-furan-2-carboxylic acid-[(7S)-1,2,3-trimethoxy-10-methylsulfanyl-9-oxo-5,6,7,9-tetrahydro-benzo[a]heptalen-7-yl]-amide], the EC50 was determined as 2.9 nM in the series on MCF7; 15.8 nM with A549; 9.3 nM in the series on SK-OV-3; 2.3 nM in the series on HCT-15; 5.4 nM in the series with SK-MEL-2.
Regarding `COc1c(OC(C)C)cc2c(c1OC)-c1ccc(SC)c(=O)cc1[C@@H](NC(=O)c1cccc(CO[N+](=O)[O-])c1)CC2` [Example 3, N-[(7S)-3-isopropoxy-1,2-dimethoxy-10-methylsulfanyl-9-oxo-5,6,7,9-tetrahydro-benzo[a]heptalen-7-yl]-3-nitrooxymethyl-benzamide], the EC50 came to 2.3 nM in the series with MCF7; 2.4 nM with A549; 4 nM in the series with SK-OV-3; 4.8 nM in the series on HCT-15; 1 nM with SK-MEL-2.
Consider `CCOc1cc2c(c(OC)c1OC)-c1ccc(SC)c(=O)cc1[C@@H](NC(=O)c1cccc(CO[N+](=O)[O-])c1)CC2` [Example 4, N-[(7S)-3-ethoxy-1,2-dimethoxy-10-methylsulfanyl-9-oxo-5,6,7,9-tetrahydro-benzo[a]heptalen-7-yl]-3-nitrooxymethyl-benzamide], for which the EC50 in the series with MCF7 was 0.01 nM; in the series on A549, 0.01 nM; in the series with SK-OV-3, 0.01 nM; in the series with HCT-15, 0.03 nM; with SK-MEL-2 it was 0.01 nM.
In the case of `COc1cc2c(c(OC)c1OC)-c1ccc(SC)c(=O)cc1[C@@H](NC(=O)c1cccc(CO[N+](=O)[O-])n1)CC2` [Example 5, 6-nitrooxymethyl-pyridine-2-carboxylic acid-[(7S)-1,2,3-trimethoxy-10-methylsulfanyl-9-oxo-5,6,7,9-tetrahydro-benzo[a]heptalen-7-yl]-amide], the EC50 in the series on A549 worked out at 1 nM; in the series with SK-OV-3, 1 nM; in the series with HCT-15, 4.4 nM; with SK-MEL-2, 3.1 nM.
Consider `COc1cc2c(c(OC)c1OC)-c1ccc(SC)c(=O)cc1[C@@H](NC(=O)c1ccc(CO[N+](=O)[O-])s1)CC2` [Example 6, 5-nitrooxymethyl-thiophene-2-carboxylic acid-[(7S)-1,2,3-trimethoxy-10-methylsulfanyl-9-oxo-5,6,7,9-tetrahydro-benzo[a]heptalen-7-yl]-amide], for which the EC50 was determined as 0.16 nM with MCF7; 0.7 nM in the series on A549; 0.37 nM with SK-OV-3; 0.27 nM in the series with HCT-15; 0.08 nM in the series with SK-MEL-2.
Consider `COc1cc2c(c(OC)c1OC)-c1ccc(SC)c(=O)cc1[C@@H](NC(=O)c1ccc(F)c(CO[N+](=O)[O-])c1)CC2` [Example 16, 4-fluoro-3-nitrooxymethyl-N-[(7S)-1,2,3-trimethoxy-10-methylsulfanyl-9-oxo-5,6,7,9-tetrahydro-benzo[a]heptalen-7-yl]-benzamide], for which the EC50 in the series with A549 came out at 1.6 nM; in the series on SK-OV-3 it was 1 nM; in the series with HCT-15, 1 nM; with SK-MEL-2 it was 1 nM.
Consider `COc1cc2c(c(OC)c1OC)-c1ccc(SC)c(=O)cc1[C@@H](NC(=O)c1cc(O)cc(CO[N+](=O)[O-])c1)CC2` [Example 18, 3-hydroxy-5-nitrooxymethyl-N-[(7S)-1,2,3-trimethoxy-10-methylsulfanyl-9-oxo-5,6,7,9-tetrahydro-benzo[a]heptalen-7-yl]-benzamide], for which the EC50 was 8.1 nM in the series with A549, 3.8 nM with SK-OV-3, 5.3 nM in the series on HCT-15 and 1 nM in the series on SK-MEL-2.
The like results for `COc1cc2c(c(OC)c1OC)-c1ccc(SC)c(=O)cc1[C@@H](NC(=O)c1ccc(COC(=O)c3cccc(O[N+](=O)[O-])c3)nc1)CC2` [Example 25, 3-nitrooxy-benzoic acid-5-[(7S)-1,2,3-trimethoxy-10-methylsulfanyl-9-oxo-5,6,7,9-tetrahydro-benzo[a]heptalen-7-yl-carbamoyl]-pyridine-2-yl-methylester] were, in that order, 8.8 nM, 5.4 nM, 15 nM and 14 nM.
The like results for `COc1cc2c(c(OC)c1OC)-c1ccc(SC)c(=O)cc1[C@@H](NC(=O)c1ccc(COC(=O)CCCO[N+](=O)[O-])nc1)CC2` [Example 26, 4-nitrooxybutyric acid-5-[(7S)-1,2,3-trimethoxy-10-methylsulfanyl-9-oxo-5,6,7,9-tetrahydro-benzo[a]heptalen-7-yl-carbamoyl]-pyridine-2-yl-methylester] were, in that order, 21 nM, more than 50 nM, more than 50 nM and 47 nM.
The like results for `COc1cc2c(c(OC)c1OC)-c1ccc(SC)c(=O)cc1[C@@H](NC(=O)c1cccc(COC(=O)c3cccc(CO[N+](=O)[O-])c3)n1)CC2` [Example 27, 3-nitrooxymethyl-benzoicacid-6-[(7S) -1,2,3-trimethoxy-10-methylsulfanyl-9-oxo-5,6,7,9-tetrahydro-benzo[a]heptalen-7-yl-carbamoyl]-pyridine-2-yl-methylester] were, in that order, 5 nM, 16 nM, 2 nM and 7 nM.
For the compound `COc1cc2c(c(OC)c1OC)-c1ccc(SC)c(=O)cc1[C@@H](NC(=O)c1cccc(COC(=O)CCCO[N+](=O)[O-])n1)CC2` [Example 28, 4-nitrooxybutyric acid-6-[(7S)-1,2,3-trimethoxy-10-methylsulfanyl-9-oxo-5,6,7,9-tetrahydro-benzo[a]heptalen-7-yl-carbamoyl]-pyridine-2-yl-methylester], the EC50 was determined as 6 nM in the series on A549, 15 nM in the series with SK-OV-3, 3 nM in the series on HCT-15 and 4 nM in the series on SK-MEL-2.
As to `COc1cc2c(c(OC)c1OC)-c1ccc(SC)c(=O)cc1[C@@H](NC(=O)c1ccccc1OC(=O)c1cccc(CO[N+](=O)[O-])c1)CC2` [Example 29, 3-nitrooxymethyl-benzoic acid-2-[(7S)-1,2,3-trimethoxy-10-methylsulfanyl-9-oxo-5,6,7,9-tetrahydro-benzo[a]heptalen-7-yl-carbamoyl]-phenylester], the EC50 in the series with A549 was found to be 1.1 nM; in the series with SK-OV-3, 3 nM; in the series on HCT-15 it was 0.8 nM; in the series on SK-MEL-2, 0.9 nM.
The like results for `COc1cc2c(c(OC)c1OC)-c1ccc(SC)c(=O)cc1[C@@H](NC(=O)c1ccccc1OC(=O)CCCO[N+](=O)[O-])CC2` [Example 30, 4-nitrooxybutyric acid-2-[(7S)-1,2,3-trimethoxy-10-methylsulfanyl-9-oxo-5,6,7,9-tetrahydro-benzo[a]heptalen-7-yl-carbamoyl]-phenylester] were, in that order, 3.6 nM, 8.2 nM, 5.2 nM and 3.6 nM.
The like results for `COc1cc2c(c(OC)c1OC)-c1ccc(SC)c(=O)cc1[C@@H](NC(=O)c1cccc(OC(=O)c3cccc(CO[N+](=O)[O-])c3)c1)CC2` [Example 31, 3-nitrooxymethyl-benzoic acid-3-[(7S)-1,2,3-trimethoxy-10-methylsulfanyl-9-oxo-5,6,7,9-tetrahydro-benzo[a]heptalen-7-yl-carbamoyl]-phenylester] were, in that order, 1.1 nM, 3 nM, 0.8 nM and 0.9 nM.
The like results for `COc1cc2c(c(OC)c1OC)-c1ccc(SC)c(=O)cc1[C@@H](NC(=O)c1cccc(OC(=O)CCCO[N+](=O)[O-])c1)CC2` [Example 32, 4-nitrooxybutyric acid-3-[(7S)-1,2,3-trimethoxy-10-methylsulfanyl-9-oxo-5,6,7,9-tetrahydro-benzo[a]heptalen-7-yl-carbamoyl]-phenylester] were, in that order, 6.2 nM, 1 nM, 0.08 nM and 0.05 nM.
Regarding `COc1cc2c(c(OC)c1OC)-c1ccc(SC)c(=O)cc1[C@@H](NC(=O)c1cccc(COC(=O)c3cccc(CO[N+](=O)[O-])c3)c1)CC2` [Example 33], the EC50 in the series with A549 worked out at 3.8 nM; in the series on SK-OV-3, 6.6 nM; in the series on HCT-15, 1 nM; with SK-MEL-2, 2.9 nM.
The like results for `COc1cc2c(c(OC)c1OC)-c1ccc(SC)c(=O)cc1[C@@H](NC(=O)c1cccc(CON=O)c1)CC2` [Example 36, 3-nitrosooxymethyl-N-[(7S)-1,2,3-trimethoxy-10-methylsulfanyl-9-oxo-5,6,7,9-tetrahydro-benzo[a]heptalen-7-yl]-benzamide] were, in that order, 2.9 nM, 1.1 nM, 0.7 nM and 0.1 nM.
For `COc1cc2c(c(OC)c1OC)-c1ccc(SC)c(=O)cc1[C@@H](NC(=O)c1cccc(CSN=O)c1)CC2` [Example 38, 3-nitrosothiomethyl-N-[(7S)-1,2,3-trimethoxy-10-methylsulfanyl-9-oxo-5,6,7,9-tetrahydro-benzo[a]heptalen-7-yl]-benzamide], the EC50 in the series on A549 was 2.4 nM; with SK-OV-3, 4.1 nM; in the series with HCT-15, 3 nM; in the series on SK-MEL-2, 3.3 nM.
